Experimental findings from patent publication US7598032B2, “Thermostable DNA polymerases incorporating nucleoside triphosphates labeled with fluorescent dyes” (Roche Molecular Systems, priority 1997, dated 2009) are described below.

What all share (format): biochemical
Assay [1] can be described thus: screen of transformants for incorporation of [α-32P]Tet-dCTP. The settings on record: in comparison to the wild-type enzyme. The text has this:
The C-terminal amino acid portion of Taq DNA polymerase encodes the polymerase active site domain (Lawyer et al., 1993, PCR Methods and Applications 2:275-287, Freemont et al., 1986, Proteins: Structure, Function and Genetics 1:66-73, which are incorporated herein by reference). A DNA fragment containing this region was isolated from the full-length Taq gene and mutagenized by PCR amplification in the presence of manganese (Leung et al, 1989, Technique 1(1):11-15). For this example, all restriction enzymes were purchased from New England Biolabs, Beverly Mass. The mutagenized fragments were digested with PstI and BglII and cloned into a Taq expression plasmid, pLK102, which had been digested with PstI and BglII. Plasmid pLK102 is a derivative of pLK101 in which the 900 bp PstI-BglII fragment is replaced by a short PstI-BglII linker. […]
The mutagenized Taq expression plasmid of mutant CS1 was digested with HindIII/NheI and the resulting restriction fragment was subcloned into the wild-type gene of pLK101, replacing the unmutagenized HindIII/NheI fragment, to determine which portion of the mutagenized Taq polymerase gene was responsible for the altered phenotype. […] Subsequent subclone analysis determined that the mutation was located in the 265 bp BamHI-NheI fragment.

Assay [2] in a line: standard PCR reaction with cyanine-labeled dNTPs. The settings on record: compared with the wild-type enzyme. An excerpt: Although the examples provided herein use dideoxynucleotides labeled with fluorescein family dyes, the use of other unconventional nucleotides and fluorescent dyes is also within the scope of this invention. Other unconventional nucleotides include fluorescently-labled dNTPs, which can be used to label the products of DNA synthesis, and fluorescently-labled rNTPs, which can be used to label the primer extension products. Other dyes include other negatively charged fluorescent dyes, such as BODIPY, which are structurally and chemically similar to fluorescein. Other dyes also include cyanine dyes. Cyanine-labeled dNTPs were added to a standard PCR reaction which included a Taq DNA polymerase with the […] mutation (and a G46D mutation). […] Thus, in this aspect, a method of labeling DNA of the invention uses a native or mutant polymerase of the invention in combination with a nucleotide labeled with either a negatively charged fluorescent dye or a cyanine dye. In one embodiment, the DNA labeling method of the invention comprises: […]

The test system of assay [3] is primer DG48 annealed to M13 mp18 template. The assay can be described thus: limiting template, primer extension competition assay (ddNTP incorporation assay). To be noted: ratio of concentrations for 50% inhibition by Zowie-ddCTP vs. ddCTP. The procedure:
The ability of the enzymes of this invention to efficiently incorporate nucleotides labeled with fluorescein family dyes is measured by ddNTP incorporation assays. One such assay is a primer extension competition assay conducted under conditions of limiting template. In this assay, a primer DG48 (5′-[…]), (SEQ ID NO: 11), bound to M13 mp18 template (Innis et al., 1988, Proc. Natl. Acad. Sci. USA 85:9436) is extended in the presence of [α-^33P]dCTP and excess enzyme with various levels of a fluorescently labeled ddNTP, Zowie-ddCTP. Because the incorporation of a ddCTP residue terminates the extension reaction, the more readily a DNA polymerase incorporates a ddCTP into an extended primer, the less [α-^33P]dCTP can be incorporated. Thus, as the efficiency of fluorescently labeled ddCTP incorporation increases, the extent of inhibition of DNA synthesis is increased. The reactions were also performed with various levels of an unlabeled ddCTP. […]
The relative abilities of G46D F667Y Taq, G46D F667Y E681K Taq and F730Y Tma30 DNA polymerases to incorporate a fluorescein dye family-labeled ddCTP were compared by use of a limiting template, primer extension competition assay. […] In this competition assay, because the incorporation of a ddCTP terminates the extension reaction, the more readily the polymerase incorporates a ddCTP into an extended primer, the less [α-^33P]dCTP can be incorporated. […]

Assay [4] deals with primer annealed to an M13 template. The experiment in a line: Extension rate assay. The settings on record: 75° C. The procedure: The extension rate of G46D F667Y Taq and G46D F667Y E681K Taq were determined using an extension rate assay. In this experiment, the enzymes were used to extend a primer annealed to an M13 template in the presence of [α-^33P]dCTP. The extension reactions were denatured and the products analyzed by denaturing agarose gel electrophoresis.
The assay was performed as previously described (Lawyer et al., 1989, J. Biol. Chem. 264:6427) including the following modifications. The assay mixture was composed so the final concentration was 50 mM Bicine pH 8.3, 25° C., 2.5 mM MgCl2, 1 mM β-mercaptoethanol, 200 μM each of dATP, dGTP and dTTP (Perkin-Elmer), 100 μM dCTP (Perkin-Elmer) containing [α-^33P]dCTP (New England Nuclear, Boston, Mass.). M13 mp18 (Perkin-Elmer) was annealed to primer DG48, (SEQ ID NO: 11), and the equivalent of 0.085 pmoles of the annealed template was added to the assay mixture for each reaction. Forty-five μl of the assay mixture with template DNA was added to each of fourteen 0.5 ml eppendorf tubes. Each tube was preincubated at 75° C. for at least 30 seconds before the start of the polymerase reaction.
Polymerization was initiated in six of the fourteen assay tubes with 5 μl of G46D F667Y Taq DNA polymerase (2.5 units) or G46D F667Y E681K Taq DNA polymerase (1.25 units). Both enzymes were prepared as in Example I and the concentration used represents a predetermined excess amount of enzyme for the amount of substrate in the assay. As a control for the level of background, the remaining negative control was initiated with enzyme dilution buffer rather than polymerase. All reaction tubes were immediately vortexed briefly and incubated at 75° C. Two of the six tubes containing G46D F667Y Taq DNA polymerase were incubated 3 minutes, two for 6 minutes and two for 10 minutes. Similarly, two of the tubes started with G46D F667Y E681K Taq DNA polymerase were incubated for 30 seconds, two for 1 minute and two for 2 minutes. The control tubes were incubated for 3 minutes. The reactions were stopped by addition of 10 μl 60 mM EDTA and stored at 0° C.
For each reaction, a 25 μl aliquot of the 60 μl reaction was diluted with 1 ml 2 mM EDTA, 50 μg/ml sheared salmon sperm DNA as a carrier. The DNA was precipitated with TCA using standard procedures and collected on GF/C filter discs (Whatman). The amount of incorporated [α-^33P]dCMP was determined for each sample.
The remaining 35 μl of each duplicated were combined and the 70 μl sample was ethanol precipitated, dried and resuspended in 50 mM NaOH, 1 mM EDTA. Aliquots were removed from these samples such that an equal number of α-^33P] counts were taken from each. These aliquots were loaded on an 0.9% alkaline agarose gel, electrophoresed, dried and autoradiographed as previously described (Maniatis et al., 1982, In Molecular Cloning: A Laboratory Manual, Cold Spring Harbor Laboratory, Cold Spring Harbor, N.Y.) Bacteriophage lambda DNA cut with restriction enzyme HindIII (BRL) and 5′ end-labeled with [^32P] was used as a molecular weight standard.
The length in base pairs of the extension product in each sample was determined by comparison of the migration distance of each sample with the distance migrated by the lambda DNA size standard. The number of base pairs in each product was divided by the number of seconds each extension reaction incubated to give the extension rate as shown below.

As to “Mutant CS1: mutagenized Taq DNA polymerase clone (plasmid pCS1) carrying the E681K mutation”, in assay [1], the “ability to incorporate [α-32P]Tet-dCTP” value is recorded as “more efficiently incorporate”.
Regarding “G46D E681K Taq: thermostable Taq DNA polymerase with G46D and E681K mutations, encoded by plasmid pLK112”, in assay [2], the “incorporation of cyanine-labeled dNTPs into amplification products” value is recorded as “higher than for the wild-type enzyme”.
On to “G46D F667Y Taq: Taq DNA polymerase having an F667Y mutation and a G46D mutation; known as AmpliTaq, FS [reference compound]”, for which the “Zowie-ddCTP/ddCTP (ratio of concentrations for 50% inhibition)” value in assay [3] came to 25. The entries for the “extension rate, Base Pairs/Sec” value in assay [4] (Time 3 min.), in assay [4] (Time 6 min.) and in assay [4] (Time 10 min.) were 12.5 Base Pairs/Sec, 12.2 Base Pairs/Sec and 11.8 Base Pairs/Sec, respectively.
